Experimental data from patent US20220380430A1, “Non-Transgenic Functional Rescue of Neuropeptides” (Worcester Polytechnic Institute, priority 2021, published 2022).
No end group written: not given here.

Key:
C. elegans [1] = experiment: Drop avoidance assay of ascr #8; type: in vivo; conditions: in words
Experimental: Because the defect in male response to ascr #8 was significant, and the SWAA was designed to detect attractive behaviors, it was sought to determine if flp-3 loss-of-function (lof) animals were in fact avoiding ascr #8. Using a previously described drop avoidance assay, forward moving animals were exposed to a drop of either vehicle control or ascr #8 and scored the avoidance index. […] The hermaphroditic behavior was unaffected by the loss of flp-3. (FIG. 12F).
Assays were performed as described previously in Chute, C. D. & Srinivasan, J. Semin. Cell Dev. Biol. 33, 18-24 (2014); Chute, C. D. et al. Nat. Commun. 10, 3186 (2019); and Hilliard, M. A. et al., EMBO J. 23, 1101-1111 (2004). Fifty to sixty L4 worms were segregated by sex and stored at 20° C. for 5 h to overnight to be assayed as young adults. One to four hours prior to the assay, the lids of unseeded plates were tilted to allow any excess moisture to evaporate off the plates. At the time of the assay, 10 or more animals were transferred onto each of the dried, unseeded plates. A drop of either water or 1 μM ascr #8 was placed on the tail of forward moving animals, and their response was scored as either an avoidance response, or no response. The total number of avoidances was divided by the total number of drops to generate an avoidance index for that plate. This was repeated for at least 10 plates over at least three different days.

C. elegans [2] = experiment: Single worm attraction assay (SWAA) of ascarosides; type: in vivo; conditions: for dwell time in cue vs vehicle: 1 μM, in words
Experimental: The spot retention assay was adapted to allow for better characterization of individual worm behavior and robust interrogation of attraction to small molecules. The attractiveness of 1 μM ascr #8 (FIG. 11A) were compared across multiple strains of C. elegans (the wild-type N2 strain, the high incidence of male him-5 and him-8 strains, and the chemosensory cilia defective osm-3), using the novel behavioral assay, the single worm attraction assay (SWAA) (FIG. 11A). In this assay, individual animals were placed directly into the spot of the ascaroside cue (A) while simultaneously removing any potential of male-male contact. […] Likewise, a vehicle control (V) is also included, to account of any changes in dwell time that are driven by the components of the vehicle. The outer forty wells of a 48-well suspension culture plate (Olympus Plastics, Cat #: 25-103) were seeded with 200 μL of standard NGM agar. To prepare the plates for the assay, they were acclimated to room temperature, at which point each well was seeded with 65 μL of OP50 E. coli. The assay plates were then transferred to a 37° C. incubator with the lid tilted for 4 h to allow the bacterial culture to dry on the agar. Once the bacterial culture dried, the lid was replaced the plate was stored at 20° C. until used in the assay. Fifty to sixty L4 worms were segregated by sex and stored at 20° C. for 5 h to overnight to be assayed as young adults. 0.8 μL of either vehicle control or ascaroside #8 was placed in the center of the well corresponding to that condition within the quadrant being tested, following a random block design (FIG. 11A). A single worm was placed in each of the 10 wells to be assayed, and the plate was transferred to a light source and camera and recorded for 15 m. […] Raw dwell time values were calculated by subtracting the time a worm exited the cue (center of the well in spatial controls), from the time it entered, as in the SRA. This was determined per visit, and the average dwell time was calculated for each animal in the quadrant. Averages of the four-quadrant means were determined per plate, and a minimum of five plates were assayed per strain/condition. The mean raw dwell time across five plates was calculated and used for statistical analyses and graphical display. […] An “attractive visit” was first determined for each plate as any visit greater than two standard deviations above the mean dwell time within the vehicle control for that plate. Any individual visit meeting this threshold was scored as a “1”, and any below was scored a “0”. The percent visits per-worm that were attractive was determined, and the average of each quadrant taken. […] The average percent of attractive visits across five plates was calculated and used for statistical analyses and graphical display.

FRPR-16 = target: T1, FRPR-16 (Caenorhabditis elegans, UniProt Q21957); experiment: In vitro GPCR activation assay (CHO-K1 cells, aequorin, human Gα16), FRPR-16; type: cell-based, C. elegans; conditions: calcium/aequorin luminescence in transfected CHO-K1 cells
T1 sequence (Q21957 1-340): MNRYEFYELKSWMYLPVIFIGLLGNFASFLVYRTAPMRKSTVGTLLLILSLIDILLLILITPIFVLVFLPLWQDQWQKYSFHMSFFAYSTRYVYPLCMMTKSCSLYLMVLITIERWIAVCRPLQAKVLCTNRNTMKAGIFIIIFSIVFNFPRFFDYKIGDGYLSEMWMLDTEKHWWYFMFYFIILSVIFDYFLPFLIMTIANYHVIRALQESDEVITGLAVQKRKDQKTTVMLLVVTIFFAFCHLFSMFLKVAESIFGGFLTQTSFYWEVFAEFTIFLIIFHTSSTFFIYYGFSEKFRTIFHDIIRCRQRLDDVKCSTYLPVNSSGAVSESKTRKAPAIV
Experimental: (§1) The GPCR activation assay was performed as previously described Van Sinay, E. et al. Proc. Natl Acad. Sci. USA 114, E4065-e4074 (2017) and Peymen, K. et al. PLoS Genet. 15, e1007945 (2019). Briefly, npr-10 and frpr-16 cDNAs were cloned into the pcDNA3.1 TOPO expression vector (Thermo Fisher Scientific). A CHO-K1 cell line (PerkinElmer, ES-000-A24) stably expressing apo-aequorin targeted to the mitochondria (mtAEQ) and human Gα16 was transiently transfected with the receptor cDNA construct or the empty pcDNA3.1 vector using Lipofectamine LTX and Plus reagent (Thermo Fisher Scientific). Cells were shifted to 28° C. one day later and allowed to incubate for 24 h. On the day of the assay, cells were collected in BSA medium (DMEM/Ham's F12 with 15 mM HEPES, without phenol red, 0.1% BSA) and loaded with […] coelenterazine h (Thermo Fisher Scientific) for 4 h at room temperature. The incubated cells were then added to synthetic peptides dissolved in DMEM/BSA, and luminescence was measured for 30 s at […] using a Mithras LB940 (Berthold Technologies) or MicroBeta LumiJet luminometer (PerkinElmer). After 30 s of readout, 0.1% triton X-100 was added to lyse the cells, resulting in a maximal calcium response that was measured for 10 s. After initial screening, concentration-response curves were constructed for HPLC-purified FLP-3 peptides by subjecting the transfected cells to each peptide in a concentration range from 1 pM to 10 μM. Cells transfected with an empty vector were used as a negative control. Assays were performed in triplicate on at least two independent days. Concentration-response curves were fitted using Prism v. 7 (nonlinear regression analysis with a sigmoidal concentration-response equation).

NPR-10A = experiment: In vitro GPCR activation assay (CHO-K1 cells, aequorin, human Gα16), NPR-10A; type: cell-based, C. elegans; conditions: in words
Experimental: (§2) Using Chinese hamster ovarian (CHO) cell cultures stably expressing the promiscuous G protein, Gα16, and the calcium reporter, aequorin, it was observed that both isoforms of NPR-10 are activated by seven of the ten FLP-3 peptides, with half-maximal effective concentrations (EC50) in the nM range (FIG. 14A-FIG. 14H, Table V). […] This peptide contains an R-to-K mutation within the C-terminal motif, which may explain the lack of receptor activation.
The GPCR activation assay was performed as previously described Van Sinay, E. et al. Proc. Natl Acad. Sci. USA 114, E4065-e4074 (2017) and Peymen, K. et al. PLoS Genet. 15, e1007945 (2019). Briefly, npr-10 and frpr-16 cDNAs were cloned into the pcDNA3.1 TOPO expression vector (Thermo Fisher Scientific). A CHO-K1 cell line (PerkinElmer, ES-000-A24) stably expressing apo-aequorin targeted to the mitochondria (mtAEQ) and human Gα16 was transiently transfected with the receptor cDNA construct or the empty pcDNA3.1 vector using Lipofectamine LTX and Plus reagent (Thermo Fisher Scientific). […] The incubated cells were then added to synthetic peptides dissolved in DMEM/BSA, and luminescence was measured for 30 s at […] using a Mithras LB940 (Berthold Technologies) or MicroBeta LumiJet luminometer (PerkinElmer). After 30 s of readout, 0.1% triton X-100 was added to lyse the cells, resulting in a maximal calcium response that was measured for 10 s. […]

NPR-10B = target: T2, NPR-10B (Caenorhabditis elegans, UniProt Q6EUU1); experiment: In vitro GPCR activation assay (CHO-K1 cells, aequorin, human Gα16), NPR-10B; type: cell-based, C. elegans; conditions: in words
T2 sequence (Q6EUU1 1-362): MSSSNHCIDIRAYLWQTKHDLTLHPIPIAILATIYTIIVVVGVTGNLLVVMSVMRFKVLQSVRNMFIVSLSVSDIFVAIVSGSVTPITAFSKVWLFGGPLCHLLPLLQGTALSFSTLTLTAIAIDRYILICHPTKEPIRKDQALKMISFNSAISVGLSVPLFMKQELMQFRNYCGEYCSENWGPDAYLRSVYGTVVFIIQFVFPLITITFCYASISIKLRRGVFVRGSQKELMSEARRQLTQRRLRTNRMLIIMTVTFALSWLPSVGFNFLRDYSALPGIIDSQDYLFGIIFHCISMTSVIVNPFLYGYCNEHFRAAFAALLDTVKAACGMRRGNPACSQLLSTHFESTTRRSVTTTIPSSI
Experimental: as §2, §1

EC50 (FRPR-16) [nM] | activation of NPR-10 (NPR-10B) (NPR-10B) | Compound | avoidance of the cue (C. elegans [1]; hermaphrodites) | avoidance of the cue (C. elegans [1]; wild-type males, 1 μM ascr #8) | dwell time in cue vs vehicle (C. elegans [2]; hermaphrodites, all strains) | dwell time in cue vs vehicle (C. elegans [2]; males, wild-type and him strains) | attractive visits to the cue (C. elegans [2]; males, 1 μM ascr #8) | activation of NPR-10A (NPR-10A)
 |  | C[C@H](CC/C=C/C(=O)Nc1ccc(C(=O)O)cc1)O[C@@H]1O[C@@H](C)[C@H](O)C[C@H]1O [ascr #8] | avoid | did not avoid the cue | significantly less time in ascr #8 than the vehicle | significant increase in the amount of time spent within ascr #8 spot compared to the vehicle control | 30-45% | 
1600 | did not activate | SADDSAPFGTMRF-NH2 [FLP-3-8, SADDSAPFGTMRFamide] |  |  |  |  |  | did not activate
